Experiment [1] relates to human whole blood, adhesion to fractalkine. The experiment can be described thus: Human whole blood flow adhesion assay. Format: cell-based. As to conditions: heparinised human whole blood, adhesion to recombinant human fractalkine under flow, 15 min preincubation. The procedure:
Flow adhesion assays were performed using a microfluidics system (Cellix Microfluidics SP1.0 platform) and 8-channel biochips (Cellix Vena 8 biochips). Channel 1 was used as control and channels 2 to 8 to evaluate seven different concentrations of antagonist. To 25 monitor adhesion to fractalkine, channels were first coated with 15 μl of anti-His Tag antibody at 25 μg/ml for 2 hours. Channels were then washed three times with 15 μl DPBS to remove unbound antibody. Subsequently, 15 μl of recombinant human fractalkine at 2.5 μg/ml was added to each channel and biochips were left at 4° C. overnight in a humidified atmosphere. The following day, channels were washed three times with 15 μl DPBS prior to blocking with 15 μl of BSA at 10 mg/ml for 30 minutes. Human whole blood was obtained by venipuncture using heparin as anti-coagulant. DMSO carrier or compounds in DMSO were added to 0.3 ml blood in 1.5 ml Eppendorf tubes followed by incubation at room temperature for 15 minutes. The Vena 8 biochip was placed on a microscope stage and channels were washed with RPMI 1640 medium containing 1% BSA in preparation for the assays. […] Adhered cells were subsequently quantified using DucoCell software (Cellix).

In experiment [2] the target is T1, CX3CR1 receptor (Homo sapiens, UniProt P49238).
T1 construct: host or cells: CHO K1 cells; membranes prepared in-house
T1 sequence (P49238 1-355): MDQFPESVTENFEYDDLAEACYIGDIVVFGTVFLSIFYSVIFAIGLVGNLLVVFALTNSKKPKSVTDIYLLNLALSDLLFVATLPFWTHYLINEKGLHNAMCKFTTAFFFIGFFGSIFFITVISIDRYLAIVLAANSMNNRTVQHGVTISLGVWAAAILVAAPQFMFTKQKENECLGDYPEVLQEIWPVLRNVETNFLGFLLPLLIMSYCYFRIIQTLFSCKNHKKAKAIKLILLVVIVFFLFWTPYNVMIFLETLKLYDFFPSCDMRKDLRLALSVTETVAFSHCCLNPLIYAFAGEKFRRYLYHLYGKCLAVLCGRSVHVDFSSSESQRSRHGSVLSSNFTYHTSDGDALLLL
The experiment can be described thus: Fractalkine (CX3CR1) GTPgS inhibition assay (96 well). Format: biochemical. As to conditions: CX3CR1 CHO K1 membranes, inhibition of 35S-GTPγS signal generated by EC80 of fractalkine, triplicate. The procedure:
The activation of the CX3CR1 receptor by fractalkine can be detected using a GTPγS assay. ^35S-labelled GTPγS is added to the reaction (together with compounds and CX3CR1 CHO K1 membranes) to bind to the G-protein in the membranes instead of GTP upon activation of the receptor. Since ^35S-labelled GTPγS is non-hydrolysable the receptor will stay in its active state. The bound ^35S-labelled GTPγS is separated from free by vacuum filtration onto 96 well filters. In inhibition assay mode the receptor in the membranes will be activated with the EC80 of fractalkine and further the CX3CR1 antagonists will inhibit the signal generated by the EC80 of fractalkine.
Ligand: Fractalkine, PeproTech, cat no 300-31, 1 mg, −20° C. Diluted in dH2O+0.05% BSA to a stock concentration of 0.1 mM, Stored in −20° C.
^35S-GTPγS, Perkin Elmer (NEN), Cat no NEG030H, Specific activity 1250 Ci/mmol, 1 mCi/ml, −20° C.
Membranes: membranes are prepared inhouse from CX3CR1 CHO K1 cells purchased from Euroscreen. Protein concentration: 5.7 mg/ml, −80° C.
• HEPES: Sigma H-3375, RT • MgCl2×6H2O: Merck, cat no 5833, RT • NaCl: Merck, cat no 6404, RT • GDP: −20° C., Sigma cat no G-7127, Diluted in dH2O to a stock concentration of 10 mM. • Stored in −20° C. • Gelatine type A: Sigma, cat no G2625, 1% stock in water (heating is necessary to dissolve gelatine) made fresh on the day of the experiment RT
• Tris: Tris-HCl: Sigma, cat no T1503, RT • Tris-base: Sigma, cat no T3283, RT • MgCl2×6H2O: Merck, cat no 5833, RT • NaCl: Merck, cat no 6404, RT • Assay plates: 96 well, Nunc, 269620 • Filter: Printed Filtermat B, Wallac • Scintillator sheets: MeltiLex B, PerkinElmer
Assay plates are prepared by CMT with 1 compound/plate. 2 μl compound with the highest concentration 3.3 mM diluted with a factor 3 in 10 steps. This gives a final assay concentration of 33 μM for the highest concentration.
100 μl membranes (5 μg/well) diluted in 2× assay buffer is added to the assay plate.
100 μl ^35S-GTPγS (final assay concentration: 0.00056 μCi/μl) diluted in dH2O with EC80 of fractalkine is then added. […]
The plate is read in a microbeta. […]
(In general: GTPγS is a poorly hydrolysed GTP analogue; its binding reports G protein activation.)

Here are results for three compounds from patent US20090247555A1, “5,7-Disubstituted[1,3]Thiazolo[4,5-D]Pyrimidin-2(3H)-One Derivatives 258” (AstraZeneca AB, priority 2008, published 2009).

Molecules are shown by their SMILES.

On to `CC(C)CC(CO)Nc1nc(SC(C)c2ccccn2)nc2[nH]c(=O)sc12` (single isomer, unassigned; isomer 1) [Example 12], for which the IC50 (in general, the midpoint of a concentration-inhibition curve) is 2.4 µM in experiment [1] and 1 µM in experiment [2].

For the compound `CC(C)CC(CO)Nc1nc(SC(C)c2ccccn2)nc2[nH]c(=O)sc12` (single isomer, unassigned; isomer 2) [Example 13], in experiment [2], the IC50 was 9.2 µM.

Regarding `CC(C)C[C@H](CO)Nc1nc(SC(C)c2ccccn2)nc2[nH]c(=O)sc12` (stereo partly drawn) [Example 1, 7-[(R)-1-hydroxy-4-methylpentan-2-ylamino]-5-[1-(pyridin-2-yl)ethylthio]thiazolo[4,5-d]pyrimidin-2(3H)-one], in experiment [2], the IC50 is 2.6 µM.
